Patent publication US4069317A, “N^2 -Arylsulfonyl-L-argininamides and the pharmaceutically acceptable salts thereof” (Mitsubishi Chemical Industries Ltd., priority 1974, dated 1978)

Columns and labels:
[1] = test system: mice; test: acute toxicity (LD50), intraperitoneal administration in mice; assay type: in vivo; details: mice (male, 20 g)
Source text: Representative LD50 values, for example, for N^2 -(6,7-dimethoxy-2-naphthylsulfonyl)-L-arginyl-N-butylalanine and N^2 -(4,6-dimethoxy-2-naphthylsulfonyl)-L-arginyl-N-cyclohexylmethylalanine are above 1,500 milligrams per kilogram each.

[2] = target: T1, thrombin (Bos taurus, UniProt P00735); test: fibrinogen coagulation time; assay type: biochemical; details: bovine fibrinogen, thrombin 5 units/ml, borate saline buffer pH 7.4, 25° C; control coagulation time 50-55 seconds
T1 construct: purchased Mochida Pharmaceutical Co., Ltd
Protocol: The measurement of the fibrinogen coagulation time was conducted as follows:
Immediately after mixing, the reaction mixture was transferred from the ice bath to a bath maintained at 25° C. Coagulation times were taken as the period between the time of transference to the 25° C bath and the time of the first appearance of fibrin threads.
The term "concentration required to prolong the coagulation time by a factor of two" is the concentration of an active ingredient required to prolong the normal coagulation time 50-55 seconds to 100-110 seconds.

| Concentration required to prolong the coagulation time by a factor of two [2] [µM] | SMILES | acute toxicity LD50 [1] |
| --- | --- | --- |
|  | CCCCNC(=O)[C@H](CCCNC(=N)N)NS(=O)(=O)c1cccc2c(N(C)C)cccc12 [N^2 -dansyl-N-butyl-L-argininamide, reference compound] | 75 milligrams per kilogram |
|  | CCCCN(C)C(=O)[C@H](CCCNC(=N)N)NS(=O)(=O)c1cccc2c(N(C)C)cccc12 [N^2 -dansyl-N-methyl-N-butyl-L-argininamide, reference compound] | 70 milligrams per kilogram |
|  | CCCCN(C(=O)[C@H](CCCNC(=N)N)NS(=O)(=O)c1ccc2cc(OC)c(OC)cc2c1)[C@@H](C)C(=O)O [Sample 2, N^2-(6,7-dimethoxy-2-naphthylsulfonyl)-L-arginyl-N-butylalanine] | above 1,500 milligrams per kilogram |
| 2.0 | CCCCCN(C(=O)[C@H](CCCNC(=N)N)NS(=O)(=O)c1ccc2cc(OC)c(OC)cc2c1)[C@@H](C)C(=O)O [Sample 4, N^2-(6,7-dimethoxy-2-naphthylsulfonyl)-L-arginyl-N-pentylalanine] |  |
| 2.5 | COc1cc2ccc(S(=O)(=O)N[C@@H](CCCNC(=N)N)C(=O)N(Cc3ccccc3)[C@@H](C)C(=O)O)cc2cc1OC [Sample 6, N^2-(6,7-dimethoxy-2-naphthylsulfonyl)-L-arginyl-N-benzylalanine] |  |
| 1.5 | COc1cc2ccc(S(=O)(=O)N[C@@H](CCCNC(=N)N)C(=O)N(CCc3ccccc3)[C@@H](C)C(=O)O)cc2cc1OC [Sample 8, N^2-(6,7-dimethoxy-2-naphthylsulfonyl)-L-arginyl-N-phenethylalanine] |  |
| 5 | COCCN(C(=O)[C@H](CCCNC(=N)N)NS(=O)(=O)c1ccc2cc(OC)c(OC)cc2c1)[C@@H](C)C(=O)O [Sample 15, N^2-(6,7-dimethoxy-2-naphthylsulfonyl)-L-arginyl-N-(2-methoxyethyl)alanine] |  |
| 2 | COc1cc2ccc(S(=O)(=O)N[C@@H](CCCNC(=N)N)C(=O)N(C)[C@@H](Cc3ccccc3)C(=O)O)cc2cc1OC [Sample 18, N^2-(6,7-dimethoxy-2-naphthylsulfonyl)-L-arginyl-N-methylphenylalanine] |  |
| 2.5 | COc1ccc2ccc(S(=O)(=O)N[C@@H](CCCNC(=N)N)C(=O)N(C)[C@@H](Cc3ccccc3)C(=O)O)cc2c1 [Sample 20, N^2-(7-methoxy-2-naphthylsulfonyl)-L-arginyl-N-methylphenylalanine] |  |
| 15 | CCC[C@H](NC(=O)[C@H](CCCNC(=N)N)NS(=O)(=O)c1ccc2cc(OC)c(OC)cc2c1)C(=O)O [Sample 21, N^2-(6,7-dimethoxy-2-naphthylsulfonyl)-L-arginylnorvaline] |  |

| SMILES | Concentration required to prolong the coagulation time by a factor of two [2] [µM] | acute toxicity LD50 [1] |
| --- | --- | --- |
| COc1ccc2cc(S(=O)(=O)N[C@@H](CCCNC(=N)N)C(=O)N(CC3CCCCC3)[C@@H](C)C(=O)O)cc(OC)c2c1 [Sample 12, N^2-(4,6-dimethoxy-2-naphthylsulfonyl)-L-arginyl-N-cyclohexylmethylalanine] | 4.5 | above 1,500 milligrams per kilogram |
